Data as given in patent US10759793B2, “2-(pyrazolopyridin-3-yl)pyrimidine derivatives as JAK inhibitors” (ALMIRALL, S.A., priority 2015, dated 2020).

Tests used:
Assay type in all cases: biochemical
JAK3 = JAK3 (Homo sapiens (Human), UniProt P52333); assay: In vitro JAK kinase assay (TR-FRET), JAK3; conditions: catalytic domain aa 795-1124, GST-fusion; ATP 0.6 μM; peptide 140 nM; 30 minutes at room temperature
Procedure, shortened: (§1)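 Each human JAK enzyme assayed on biotinylated poly(GT) peptide substrate, reaction 30 min at room temperature. Phosphorylation detected by TR-FRET after a 3 h detection incubation.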

JAK2 = JAK2 (Homo sapiens (Human), UniProt O60674); assay: In vitro JAK kinase assay (TR-FRET), JAK2; conditions: catalytic domain aa 826-1132, GST-fusion; ATP 0.2 μM; peptide 20 nM; 30 minutes at room temperature
Chain of JAK2 (O60674 826-1132): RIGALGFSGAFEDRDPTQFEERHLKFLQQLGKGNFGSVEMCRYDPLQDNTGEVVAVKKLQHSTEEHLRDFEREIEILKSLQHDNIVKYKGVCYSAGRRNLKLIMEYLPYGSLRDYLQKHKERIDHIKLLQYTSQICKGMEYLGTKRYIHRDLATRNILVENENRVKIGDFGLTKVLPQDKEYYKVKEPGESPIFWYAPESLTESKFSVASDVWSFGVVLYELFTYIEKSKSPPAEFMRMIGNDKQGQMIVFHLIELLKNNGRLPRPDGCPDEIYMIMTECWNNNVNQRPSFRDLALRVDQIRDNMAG
Procedure, shortened: as §1

JAK1 = JAK1 (Homo sapiens (Human), UniProt P23458); assay: In vitro JAK kinase assay (TR-FRET), JAK1; conditions: catalytic domain aa 850-1154, GST-fusion; ATP 3 μM; peptide 60 nM; 30 minutes at room temperature
Chain of JAK1 (P23458 850-1154): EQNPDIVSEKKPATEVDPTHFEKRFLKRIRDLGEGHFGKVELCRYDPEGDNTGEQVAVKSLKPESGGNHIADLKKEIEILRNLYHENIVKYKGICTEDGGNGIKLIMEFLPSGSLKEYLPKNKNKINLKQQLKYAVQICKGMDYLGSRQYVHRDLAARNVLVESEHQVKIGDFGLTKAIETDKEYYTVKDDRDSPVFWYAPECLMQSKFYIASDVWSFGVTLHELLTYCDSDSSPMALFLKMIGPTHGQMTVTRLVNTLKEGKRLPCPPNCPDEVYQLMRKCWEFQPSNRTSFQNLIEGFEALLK
Procedure, shortened: as §1

Chain of JAK3 (P52333 795-1124): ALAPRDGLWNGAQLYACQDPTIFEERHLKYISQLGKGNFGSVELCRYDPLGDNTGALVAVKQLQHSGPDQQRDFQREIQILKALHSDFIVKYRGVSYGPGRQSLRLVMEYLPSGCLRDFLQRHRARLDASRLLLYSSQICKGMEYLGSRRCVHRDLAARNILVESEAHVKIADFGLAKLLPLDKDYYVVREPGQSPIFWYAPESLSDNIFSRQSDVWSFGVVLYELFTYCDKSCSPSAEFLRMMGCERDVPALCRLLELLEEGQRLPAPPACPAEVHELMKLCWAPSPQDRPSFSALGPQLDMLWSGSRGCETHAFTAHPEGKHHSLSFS

| Molecule | IC50 (JAK3) | IC50 (JAK2) | IC50 (JAK1) |
| --- | --- | --- | --- |
| Cc1cc(-c2cc(N[C@@H]3CCCN(C(=O)CO)C3)nc(-c3cnn4ccccc34)n2)cc(C)n1 [Example 101, 2-((3R)-3-{[6-(2,6-Dimethylpyridin-4-yl)-2-pyrazolo[1,5-a]pyridin-3-ylpyrimidin-4-yl]amino}piperidin-1-yl)-2-oxoethanol] | 1 nM | 1 nM | 2 nM |
| Cc1cc(-c2cc(N[C@@H]3CCCN(C(=O)CC#N)C3)nc(-c3cnn4ccccc34)n2)cc(C)n1 [Example 102, 3-((3R)-3-{[6-(2,6-Dimethylpyridin-4-yl)-2-pyrazolo[1,5-a]pyridin-3-ylpyrimidin-4-yl]amino}piperidin-1-yl)-3-oxopropanenitrile] | 5 nM | 2 nM | 1 nM |
| N#CCC(=O)N1CCC[C@@H](Nc2cc(OCCO)nc(-c3cnn4ccccc34)n2)C1 [Example 103, 3-((3R)-3-{[6-(2-Hydroxyethoxy)-2-pyrazolo[1,5-a]pyridin-3-ylpyrimidin-4-yl]amino}piperidin-1-yl)-3-oxopropanenitrile] | 1 nM | 1 nM | 1 nM |
| N#Cc1cnc(N2CCC[C@@H](Nc3cc(OCCO)nc(-c4cnn5ccccc45)n3)C2)cn1 [Example 104, 5-((3R)-3-{[6-(2-Hydroxyethoxy)-2-pyrazolo[1,5-a]pyridin-3-ylpyrimidin-4-yl]amino}piperidin-1-yl)pyrazine-2-carbonitrile] | 1 nM | 3 nM | 4 nM |
| O=C(CO)N1CCC[C@@H](Nc2cc(-c3cncc(O)c3)nc(-c3cnn4ccccc34)n2)C1 [Example 105, 5-(6-{[(3R)-1-Glycoloylpiperidin-3-yl]amino}-2-pyrazolo[1,5-a]pyridin-3-ylpyrimidin-4-yl)pyridin-3-ol] | 5 nM | 5 nM | 2 nM |
| N#CCC(=O)N1CCC[C@@H](Nc2cc(-c3cncc(O)c3)nc(-c3cnn4ccccc34)n2)C1 [Example 106, 3-((3R)-3-{[6-(5-Hydroxypyridin-3-yl)-2-pyrazolo[1,5-a]pyridin-3-ylpyrimidin-4-yl]amino}piperidin-1-yl)-3-oxopropanenitrile] | 1 nM | 1 nM | 1 nM |
| (5-{(3R)-3-[(5-fluoro-6-methoxy-2-pyrazolo[1,5-a]pyridin-3-ylpyrimidin-4-yl)amino]piperidin-1-yl}pyrazin-2-yl)methanol [Example 55] | 33 nM | 12 nM | 170 nM |
| [Trans-4-({6-[2-(dimethylamino)ethoxy]-5-fluoro-2-pyrazolo[1,5-a]pyridin-3-ylpyrimidin-4-yl}amino)cyclohexyl]acetonitrile [Example 10] | 0.7 nM | 0.5 nM | 32 nM |
